Experimental data from the NIST ThermoML archive (doi:10.1016/j.jct.2018.07.006).
Several values for one entry are separate records, joined by “and”; a condition that tells them apart may be missing. Equal values may be shown once. ± gives the expanded uncertainty stated by the source.

Assay: mn = molality of the nth substance listed, in mol/kg
Settings: 100 kPa, Liquid; for speed of sound: Frequency=3 MHz, Single path-length method; for mass density: Vibrating tube method

CC(C)(CO)[C@@H](O)C(=O)NCCCO [d-Panthenol] + O
Settings | mass density, 293.15 K [kg/m3] | mass density, 298.15 K | mass density, 303.15 K [kg/m3] | mass density, 308.15 K [kg/m3] | speed of sound, 293.15 K [m/s] | speed of sound, 298.15 K [m/s] | speed of sound, 303.15 K | speed of sound, 308.15 K [m/s]
m1 = 0.05 | 999.509 ± 0.3 | 998.191 ± 0.3 kg/m3 | 996.926 ± 0.3 | 995.295 ± 0.3 | 1489.4 ± 2 | 1503 ± 2 | 1515.5 ± 2 m/s and 1516 ± 2 m/s | 1525.2 ± 2
m1 = 0.1 | 1001.62 ± 0.32 | 1000.22 ± 0.31 kg/m3 | 998.987 ± 0.31 | 997.338 ± 0.31 | 1494.1 ± 2 | 1507.6 ± 2 | 1519.5 ± 2 m/s and 1517.9 ± 2 m/s | 1529.1 ± 2.2
m1 = 0.15 | 1003.34 ± 0.32 | 1002.12 ± 0.32 kg/m3 and 1002.09 ± 0.32 kg/m3 | 1000.58 ± 0.32 | 998.985 ± 0.32 | 1498.5 ± 2 | 1511.6 ± 2 | 1522.9 ± 2 m/s | 1532.5 ± 2
